≈ marks a conversion by molar mass, not a printed value. Marks after values point to notes of the source that are not given here. Where a SMILES comes first, the peptide text is derived from it. [ ]: non-standard residue; d: D form. The star is where a group is joined. Phe(4-NO2) = N[C@@H](Cc1ccc([N+](=O)[O-])cc1)C(=O)O; Phe(4-NH2) = Nc1ccc(C[C@H](N)C(=O)O)cc1; 4Abz = Nc1ccc(C(=O)O)cc1; Propionyl = CCC(=O)*; Bz = O=C(c1ccccc1)*
Assays:
2.2.15 cells = assay: Cytotoxicity (TC50, median toxic concentration) in 2.2.15 cells; type: cell-based
Procedure: (§1) Cell control wells were simultaneously set up. […] IC50 and SI were calculated, respectively.

HBV DNA replication = assay: In vitro anti-HBV: inhibition of HBV DNA replication in 2.2.15 cells (dot blot); type: cell-based, hepatitis B virus; conditions: Hepatitis B virus, 192 h, day 8, dot blot
Procedure: as §1

DHBV-DNA = assay: In vivo inhibition of DHBV-DNA in DHBV-infected ducklings; conditions: 50.0 mg/kg, intraperitoneal daily
Excerpt: Test compounds: the compound prepared in Example 75
Test method: One-day-old ducklings were infected with serum containing DHBV positive virus (about 10^8-9 virions/ml). After a week, blood was collected and tested. The successfully transfected ducklings were randomly divided into three to five groups. Blank group, positive control group and treatment group(s) (one to three groups) were subjected to treatment tests. The treatment groups were divided into high, median and low dose groups. Intraperitoneal injection was carried out daily for ten days. Physiological saline was used to replace drugs in the blank group. Lamivudine was administered in the positive control group. […] Serum was separated and kept at −70° C. for tests. Duck hepatitis B virus surface antigen (DHBsAg) was assayed with DHBsAg dot molecular hybridization (DOT EIA). Duck hepatitis B virus deoxyribonucleic acid (DHBV DNA) contents in serum and duck livers were assayed with dot blot hybridization.

Compound | TC50 (2.2.15 cells) [µg/mL] | IC50 (HBV DNA replication) [µg/mL] | melting point [°C] | further results
Nc1ccn([C@@H]2CS[C@H](CO)O2)c(=O)n1 [Example 3TC, Lamivudine, reference compound] | 786.00 (≈ 3430 µM) | 18.9 (≈ 82.4 µM) | – | Inhibition Ratio (DHBV-DNA; 3rd Day of Withdrawal): 0.3; OD Value (DHBV-DNA; 3rd Day of Withdrawal): 1.54; Inhibition Ratio (DHBV-DNA; 5th Day of Test): 53.71^d; OD Value (DHBV-DNA; 5th Day of Test): 0.73^b; Inhibition Ratio (DHBV-DNA; 10th Day of Test): 57.22^d; OD Value (DHBV-DNA; 10th Day of Test): 0.68^b
COC(=O)[C@H](Cc1ccc(O)cc1)NC(=O)[C@H](Cc1ccccc1)NC(=O)c1ccccc1 [Example 04, methyl N-(N-benzoyl-L-phenylalanyl)-L-tyrosinate] (Bz-Phe-Tyr-OMe) | 450.67 (≈ 1010 µM) | 51.8 (≈ 116 µM) | 184 to 186 | –
Cc1cccc(C(=O)N[C@@H](Cc2ccccc2)C(=O)N[C@H](CO)Cc2ccccc2)c1 [Example 05, N-(N-3-methyl-benzoyl-L-phenylalanyl)-L-phenylalaninol] | 77.04 (≈ 185 µM) | 25.2 (≈ 60.5 µM) | 177 to 178.5 | –
O=C(N[C@@H](Cc1ccccc1)C(=O)N[C@H](CO)Cc1ccccc1)c1ccc(Cl)cc1 [Example 07, N-(N-4-chloro-benzoyl-L-phenylalanyl)-L-phenylalaninol] | 28.74 (≈ 65.8 µM) | 1.02 (≈ 2.33 µM) | 211.5 to 214 | –
COC(=O)[C@H](Cc1ccc(O)cc1)NC(=O)[C@H](Cc1ccc([N+](=O)[O-])cc1)NC(=O)c1ccccc1 [Example 14, methyl N-(N-benzoyl-4-nitro-L-phenylalanyl)-L-tyrosinate] (Bz-[Phe(4-NO2)]-Tyr-OMe) | 53.42 (≈ 109 µM) | 1.16 (≈ 2.36 µM) | 200 to 202 | –
COC(=O)[C@H](Cc1ccccc1)NC(=O)[C@H](Cc1ccc(O)cc1)NC(=O)c1ccc(Cl)cc1 [Example 20, methyl N-(N-4-chloro-benzoyl-L-tyrosyl)-L-phenylalaninate] | 198.46 (≈ 413 µM) | 48.5 (≈ 101 µM) | 203.5 to 205 | –
O=C(N[C@@H](Cc1ccc(O)cc1)C(=O)N[C@H](CO)Cc1ccccc1)c1ccccc1Cl [Example 22, N-(N-2-chloro-benzoyl-L-tyrosyl)-L-phenylalaninol] | 346.68 (≈ 765 µM) | 106 (≈ 234 µM) | 168 to 169 | –
COC(=O)[C@H](Cc1ccccc1)NC(=O)[C@H](Cc1ccc(O)cc1)NC(=O)c1ccccc1Cl [Example 23, methyl N-(N-2-chloro-benzoyl-L-tyrosyl)-L-phenylalaninate] | 240.38 (≈ 500 µM) | 52 (≈ 108 µM) | 175.5 to 177.5 | –
O=C(N[C@@H](Cc1ccc(O)cc1)C(=O)N[C@H](CO)Cc1ccccc1)c1ccc(F)cc1 [Example 24, N-(N-4-fluoro-benzoyl-L-tyrosyl)-L-phenylalaninol] | 396.81 (≈ 909 µM) | 96 (≈ 220 µM) | 194.5 to 195.5 | –
COC(=O)[C@H](Cc1ccccc1)NC(=O)[C@H](Cc1ccc(O)cc1)NC(=O)c1ccc(F)cc1 [Example 25, methyl N-(N-4-fluoro-benzoyl-L-tyrosyl)-L-phenylalaninate] | 574.76 (≈ 1240 µM) | 68.7 (≈ 148 µM) | 186.5 to 189 | –
COC(=O)[C@H](Cc1ccc(O)cc1)NC(=O)[C@H](Cc1ccccc1)NC(=O)c1ccc(NC(C)=O)cc1 [Example 36, methyl N-[N-(4-acetamido-benzoyl)-L-phenylalanyl]-L-tyrosinate] (Ac-[4Abz]-Phe-Tyr-OMe) | 388.03 (≈ 771 µM) | 4.56 (≈ 9.06 µM) | 215.5 to 217 | –
CCC(=O)Nc1ccc(C(=O)N[C@@H](Cc2ccccc2)C(=O)N[C@@H](Cc2ccccc2)C(=O)OC)cc1 [Example 37, methyl N-[N-(4-propionamido-benzoyl)-L-phenylalanyl]-L-phenylalaninate] ({Propionyl-4Abz}-Phe-Phe-OMe) | 129.34 (≈ 258 µM) | 1.43 (≈ 2.85 µM) | 225 to 227 | –
CCC(=O)Nc1ccc(C(=O)N[C@@H](Cc2ccccc2)C(=O)N[C@@H](Cc2ccc([N+](=O)[O-])cc2)C(=O)OC)cc1 [Example 38, methyl N-[N-(4-propionamido-benzoyl)-L-phenylalanyl]-4-nitro-L-phenylalaninate] ({Propionyl-4Abz}-Phe-[Phe(4-NO2)]-OMe) | 80.13 (≈ 147 µM) | 2.39 (≈ 4.37 µM) | 221 to 223 | –
CC(=O)Nc1ccc(C(=O)N[C@@H](Cc2ccccc2)C(=O)N[C@H](CO)Cc2ccccc2)cc1 [Example 39, N-[N-(4-acetamido-benzoyl)-L-phenylalanyl]-L-phenylalaninol] | 14.37 (≈ 31.3 µM) | 0.34 (≈ 0.74 µM) | 193 to 195 | –
O=C(N[C@@H](Cc1ccccc1)C(=O)N[C@H](CO)Cc1ccccc1)c1ccc(CN2CCCC2)cc1 [Example 50, N-{N-[4-(1-pyrrolidyl)methyl-benzoyl]-L-phenylalanyl}-L-phenylalaninol] | 64.15 (≈ 132 µM) | 7.04 (≈ 14.5 µM) | 164 to 165 | –
O=C(N[C@@H](Cc1ccccc1)C(=O)N[C@H](CO)Cc1ccccc1)c1ccc(CN2CCOCC2)cc1 [Example 51, N-{N-[4-(4-morpholinyl)methyl-benzoyl]-L-phenylalanyl}-L-phenylalaninol] | 78.52 (≈ 157 µM) | 6.98 (≈ 13.9 µM) | 183 to 184.5 | –
CCOC(=O)c1ccc(C(=O)N[C@@H](Cc2ccccc2)C(=O)N[C@H](CO)Cc2ccccc2)cc1 [Example 52, N-[N-(4-ethoxycarbonyl-benzoyl)-L-phenylalanyl]-L-phenylalaninol] | 89.23 (≈ 188 µM) | 24.2 (≈ 51 µM) | 188 to 189.5 | –
COC(=O)[C@H](Cc1ccccc1)NC(=O)[C@H](Cc1ccccc1)N(C(C)=O)C(=O)c1ccccc1 [Example 57, methyl N-(N-benzoyl-acetyl-L-phenylalanyl)-L-phenylalaninate] | 451.20 (≈ 955 µM) | 59.5 (≈ 126 µM) | 221 to 222 | –
COC(=O)[C@H](Cc1ccc(OC(C)=O)cc1)NC(=O)[C@H](Cc1ccc(NC(C)=O)cc1)NC(=O)c1ccc(C)cc1 [Example 68, methyl N-[N-(4-methyl-benzoyl)-4-acetamido-L-phenylalanyl]-O-acetyl-L-tyrosinate] | 388.03 (≈ 693 µM) | 13.1 (≈ 23.4 µM) | 222 to 223 | –
CCCCOc1ccc(C[C@H](NC(=O)[C@H](Cc2ccccc2)NC(=O)c2ccccc2)C(=O)OC)cc1 [Example 72, methyl N-(N-benzoyl-L-phenylalanyl)-O-n-butyl-L-tyrosinate] | 577.35 (≈ 1150 µM) | 87.5 (≈ 174 µM) | 177 to 178 | –
COc1ccc(C[C@H](NC(=O)[C@H](Cc2ccccc2)NC(=O)c2ccccc2)C(=O)[O-])cc1.[Na+] [Example 79, N-(N-benzoyl-L-phenylalanyl)-O-methyl-L-tyrosine sodium salt] (Bz-Phe-Tyr(Me)-OH) | 86.23 | 9.59 | – | –
O=C(O)CCC(=O)Nc1ccc(C[C@H](NC(=O)c2ccccc2)C(=O)N[C@H](CO)Cc2ccccc2)cc1 [Example 83, N-[N-benzoyl-4-(3-carboxyl-propionamido)-L-phenylalanyl]-L-phenylalaninol] | >1000 | 253 (≈ 488 µM) | – | –
CN(C)c1ccc(C[C@H](NC(=O)c2ccccc2)C(=O)N[C@H](CO)Cc2ccccc2)cc1 [Example 84, N-(N-benzoyl-4-dimethylamino-L-phenylalanyl)-L-phenylalaninol] | 86.23 (≈ 194 µM) | 1.44 (≈ 3.23 µM) | – | –
O=C(N[C@@H](Cc1ccccc1)C(=O)N[C@@H](Cc1ccccc1)C(=O)O)c1ccccc1 [Example 86, N-(N-benzoyl-L-phenylalanyl)-L-phenylalanine] (Bz-Phe-Phe-OH) | 130.56 (≈ 313 µM) | 10.6 (≈ 25.4 µM) | – | –
CC(=O)Nc1ccc(C[C@H](NC(=O)c2ccccc2)C(=O)N[C@@H](Cc2ccccc2)C(=O)O)cc1 [Example 87, N-(N-benzoyl-4-acetamido-L-phenylalanyl)-L-phenylalanine] (Bz-[Phe(4-NH2)](Ac)-Phe-OH) | 43.11 (≈ 91 µM) | 1.81 (≈ 3.82 µM) | 233.5 to 235.5 | –
O=C(N[C@@H](Cc1ccc([N+](=O)[O-])cc1)C(=O)N[C@@H](Cc1ccccc1)C(=O)O)c1ccccc1 [Example 88, N-(N-benzoyl-4-nitro-L-phenylalanyl)-L-phenylalanine] (Bz-[Phe(4-NO2)]-Phe-OH) | 388.03 (≈ 841 µM) | 25 (≈ 54.2 µM) | – | –

Source: patent publication US9023809B2, “Phenylalanine dipeptide derivatives, compositions and use thereof” (The Key Laboratory of Chemistry For Natural Products of …, priority 2008, dated 2015)
